Laboratory results reported in patent US11673867B2, “Sulfonamide derivative or pharmaceutically acceptable acid-addition salt” (University of Tsukuba, priority 2017, dated 2023).

Columns and labels:
human OX2R = target: T1, human OX2R (Homo sapiens, UniProt O43614); assay: Evaluation of agonist activity against OX2R (intracellular calcium, Fura-2AM, FDSS7000, CHOOX2R cells); format: cell-based; conditions: CHO cells expressing human OX2R; calcium fluorescence ratio 340/380 nm; 10^-11.5 M to 10^-5 M
T1 construct: expressed in transfected cells; host or cells: CHO (Chinese hamster ovary) cells, line CHOOX2R, also expressing NFAT-luciferase
T1 sequence (O43614 1-444): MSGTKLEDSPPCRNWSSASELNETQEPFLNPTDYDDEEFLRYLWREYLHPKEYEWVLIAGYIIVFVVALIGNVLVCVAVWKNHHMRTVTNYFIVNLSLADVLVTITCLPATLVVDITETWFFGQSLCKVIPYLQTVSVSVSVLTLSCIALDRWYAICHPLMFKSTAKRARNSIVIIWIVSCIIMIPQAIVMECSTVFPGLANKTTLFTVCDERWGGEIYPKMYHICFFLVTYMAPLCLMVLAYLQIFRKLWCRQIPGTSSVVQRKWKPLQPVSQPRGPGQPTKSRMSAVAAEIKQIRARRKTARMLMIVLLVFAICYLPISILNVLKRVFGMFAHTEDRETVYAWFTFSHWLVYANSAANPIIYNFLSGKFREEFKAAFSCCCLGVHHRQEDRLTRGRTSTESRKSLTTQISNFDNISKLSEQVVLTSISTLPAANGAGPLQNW
Experimental: Evaluation of Agonist Activity Against OX2R
NAFT-luciferase gene and human OX2R gene were constitutively expressed in CHO cell, which is a cell line derived from Chinese hamster ovary to establish a cell line (CHOOX2R). The cells were seeded in a 96-well Multiplate at 10,000 cells/well and cultured in a 5% FBS (Thermo Scientific)-added DMEM medium (Sigma-Aldrich) for 48 hr. The medium was removed, an assay buffer (20 mM HEPES (Sigma-Aldrich), Hanks' balanced salt solution (Gibco), 0.1% BSA (Sigma-Aldrich), 2.5 mM probenecid acid (Wako Pure Chemical Industries, Ltd.)) (100 μL) containing 4 μM Fura-2AM (Cayman Chemical) was added, and the cells were incubated for 60 min. The buffer containing Fura-2AM was removed, and an assay buffer (75 μL) was added. An assay buffer (25 μL) containing a test compound was added thereto to start the reaction. Changes in the intracellular calcium ion concentration due to the reaction were measured by measuring the fluorescence intensity ratio by dual wavelength excitation at 340 and 380 nm, by using FDSS7000 (Hamamatsu Photonics K.K.). The test compound was dissolved in DMSO to 10 mM, and diluted with the assay buffer to a final concentration of 10^−11.5 M to 10^−5 M (final concentration of DMSO 1%).

[1] = system: orexin receptor-deficient mice (DKO mice); assay: Awakening effect of oral administration to orexin receptor-deficient mice (DKO mice), negative control (EEG/EMG); format: in vivo, mouse; conditions: oral 5 mg/kg, versus control MC, measured 3 hr after administration, n=3
Excerpt: (§1) C57BL/6J lineage wild-type (WT) mice, and orexin receptor-deficient mice (DKO mice) (both males) as a negative control were used as experimental animals. The mice (9 to 35 weeks of age) underwent surgery for embedding electroencephalogram electrodes into the skull (Bregma: X=1.5; Y=0.6, Lambda: X=1.5; Y=0) and inserting electromyogram electrodes into the trapezius muscle under isoflurane anesthesia. Two weeks postoperation were the recovery period and acclimation period to the electroencephalogram/electromyogram measurement cage, after which administration and measurement were performed. To prepare a suspension for oral administration of the test compound, the compound was grinded in an agate mortar for 20 min and sufficiently stirred while adding a small amount of 0.5% methylcellulose aqueous solution (MC). The suspension (100 μL) was dispensed into an oral gavage needle. The suspensions were prepared 30 min before administration.
(§2) To the WT mice were orally administered 100 μL each of the control MC or the test compound during the light period (ZT6) in the sleep period. The test compound was administered at concentrations of 0.625 mg/kg-25 mg/kg according to the stage. DKO mice were also evaluated by a similar method, in which MC or a test compound (5 mg/kg) was orally administered, and electroencephalogram and electromyogram were measured for 3 hr after the administration. […]

[2] = system: C57BL/6J lineage wild-type (WT) mice; assay: Awakening effect of oral administration (light period) to wild-type mice (EEG/EMG); format: in vivo, mouse; conditions: ZT6 light period, 0.625 mg/kg-25 mg/kg, versus control MC, 60, 120, 180 min after administration, n=3
Excerpt: Awakening Effect of Oral Administration (Light Period) of Test Compound to Wild-Type Mice
As the test compound, the compound of Example 1 was used.
as §1, with “The suspensions were prepared 30 min before administration.” left out
as §2, with “The test compound was administered at concentrations of 0.625 mg/kg-25 mg/kg according to the stage.” left out

| SMILES | EC50 (human OX2R) [nM] | awakening time (awakening prolonging effect) [1] | awakening time (awakening prolonging effect) [2] |
| --- | --- | --- | --- |
| CCCCCCCCOc1ccc(N2CCCN(c3cccc(NS(=O)(=O)c4cc(-c5cccc(C(=O)N(C)C)c5)ccc4OC)c3)C2=O)cc1 [Example 11] | > 500 |  |  |
| CCOc1ccc(N2CCCN(c3cccc(NS(=O)(=O)c4cc(-c5cccc(C(=O)N(C)C)c5)ccc4OC)c3)C2=O)cc1 [Example 6, 3′-(N-(3-(3-(4-ethoxyphenyl)-2-oxotetrahydropyrimidin-1(2H)-yl)phenyl)sulfamoyl)-4′-methoxy-N,N-dimethyl-[1,1′-biphenyl]-3-carboxamide] | 2.87 |  |  |
| CCCCc1ccc(N2CCCN(c3cccc(NS(=O)(=O)c4cc(-c5cccc(C(=O)N(C)C)c5)ccc4OC)c3)C2=O)cc1 [Example 13, 3′-(N-(3-(3-(4-butylphenyl)-2-oxotetrahydropyrimidin-1(2H)-yl)phenyl)sulfamoyl)-4′-methoxy-N,N-dimethyl-[1,1′-biphenyl]-3-carboxamide] | 7.52 |  |  |
| COc1ccc(N2CCCN(c3cccc(NS(=O)(=O)c4cc(-c5cccc(C(=O)N(C)C)c5)ccc4OC)c3)C2=O)cc1 [Example 5] | 2.41 |  |  |
| CCCc1ccc(N2CCCN(c3cccc(NS(=O)(=O)c4cc(C5CNC(=O)C5)ccc4OC)c3)C2=O)cc1 (stereo not shown) [Example 18, 2-methoxy-N-(3-(2-oxo-3-(4-propylphenyl)tetrahydropyrimidin-1(2H)-yl)phenyl)-5-(5-oxopyrrolidin-3-yl)benzenesulfonamide] | 6.31 |  |  |
| COc1ccc(N2CCCN(c3cccc(NS(=O)(=O)c4cc(C(C)C)ccc4OC)c3)C2=O)cc1 [Example 21] | 81.7 |  |  |
| CCCc1ccc(N2CCCN(c3cccc(NS(=O)(=O)c4cc(-c5cccc(C(=O)N(C)C)c5)ccc4OC(F)(F)F)c3)C2=O)cc1 [Example 17, N,N-dimethyl-3′-(N-(3-(2-oxo-3-(4-propylphenyl)tetrahydropyrimidin-1(2H)-yl)phenyl)sulfamoyl)-4′-(trifluoromethoxy)-[1,1′-biphenyl]-3-carboxamide] | 395 |  |  |
| COc1ccc(-c2cccc(C(=O)N(C)C)c2)cc1S(=O)(=O)Nc1cccc(N2CCCN(c3ccc(OCC(C)C)cc3)C2=O)c1 [Example 10] | 65.9 |  |  |
| COc1ccc(-c2cccc(C(=O)N(C)C)c2)cc1S(=O)(=O)Nc1cccc(N2CCCN(c3ccc(OCC(F)(F)F)cc3)C2=O)c1 [Example 9] | 20 |  |  |
| CCc1ccc(N2CCCN(c3cccc(NS(=O)(=O)c4cc(-c5cccc(C(=O)N(C)C)c5)ccc4OC)c3)C2=O)cc1 [Example 3] | 3.1 |  |  |
| COc1ccc(C(C)C)cc1S(=O)(=O)Nc1cccc(N2CCCN(c3ccc(C(C)C)cc3)C2=O)c1 [Example 20] | 41.4 |  |  |
| COc1ccc(-c2cccc(C(=O)N(C)C)c2)cc1S(=O)(=O)Nc1cccc(N2CCCN(c3ccc(-c4ccccc4)cc3)C2=O)c1 [Example 14] | 140 |  |  |
| CCCc1ccc(N2CCCN(c3cccc(NS(=O)(=O)c4cc(-c5cccc(C(=O)N(C)C)c5)ccc4OC)c3)C2=O)cc1 [Example 1, 4′-methoxy-N,N-dimethyl-3′-(N-(3-(2-oxo-3-(4-propylphenyl)tetrahydropyrimidin-1(2H)-yl)phenyl)sulfamoyl)-[1,1′-biphenyl]-3-carboxamide] | 0.61 | no significant difference in the awakening time | significantly prolonged the awakening time and increased the awakening time in a dose-dependent manner |
| CCOc1ccc(N2CCCN(c3cccc(NS(=O)(=O)c4cc(C(C)C)ccc4OC)c3)C2=O)cc1 [Example 22] | 38.1 |  |  |
| COc1ccc(-c2cccc(C(=O)N(C)C)c2)cc1S(=O)(=O)Nc1cccc(N2CCCN(c3ccc(Oc4ccccc4)cc3)C2=O)c1 [Example 12, 4′-methoxy-N,N-dimethyl-3′-(N-(3-(2-oxo-3-(4-phenoxyphenyl)tetrahydropyrimidin-1(2H)-yl)phenyl)sulfamoyl)-[1,1′-biphenyl]-3-carboxamide] | 217 |  |  |
| COc1ccc(-c2cccc(C(=O)N(C)C)c2)cc1S(=O)(=O)Nc1cccc(N2CCCN(c3ccc(C(C)C)cc3)C2=O)c1 [Example 4] | 3.3 |  |  |
| CCCCCCCCc1ccc(N2CCCN(c3cccc(NS(=O)(=O)c4cc(-c5cccc(C(=O)N(C)C)c5)ccc4OC)c3)C2=O)cc1 [Example 15] | > 500 |  |  |
| CCCc1ccc(N2CCCN(c3cccc(NS(=O)(=O)c4cc(C(C)C)ccc4OC)c3)C2=O)cc1 [Example 19, 5-isopropyl-2-methoxy-N-(3-(2-oxo-3-(4-propylphenyl)tetrahydropyrimidin-1(2H)-yl)phenyl)benzenesulfonamide] | 19.6 |  |  |
| [2H]C([2H])([2H])Oc1ccc(-c2cccc(C(=O)N(C)C)c2)cc1S(=O)(=O)Nc1cccc(N2CCCN(c3ccc(CCC)cc3)C2=O)c1 [Example 16, 4′-(methoxy-d3)-N,N-dimethyl-3′-(N-(3-(2-oxo-3-(4-propylphenyl)tetrahydropyrimidin-1(2H)-yl)phenyl)sulfamoyl)-[1,1′-biphenyl]-3-carboxamide] | 0.843 |  |  |
| COc1ccc(-c2cccc(C(=O)N(C)C)c2)cc1S(=O)(=O)Nc1cccc(N2CCCN(c3ccc(C)cc3)C2=O)c1 [Example 2] | 5.12 |  |  |
